Reference: patent publication US20240261204A1, “ASCORBIC ACID POLYPEPTIDE DERIVATIVE, PREPARATION METHOD THEREFOR, AND APPLICATION THEREOF” (HARVEST BIOTECH CO., LTD, priority 2021, published 2024)

Assays:
rabbit corneal cell SIRC = test: SIRC corneal cell irritation test (ocular irritation SIRC model); format: cell-based
Experimental: Detection method was rabbit corneal cell SIRC cell viability test. To-be-tested cells were washed 1˜2 times with PBS. 100 μL of MEM complete medium and 10 μL of CCK-8 solution were added to each well, and placed in a carbon dioxide incubator, for incubation of 2˜4 h. The absorbancy (OD) value was measured at 450 nm wavelength. CCK-8 reagent can be replaced with MTT.

tyrosinase = target: T1, tyrosinase (Mus musculus, UniProt P11344); test: Enzyme activity test for tyrosinase in α-MSH-induced B16 cells; format: cell-based; settings: 24.25 μM/10 ppm; inducer 0.1 μg/mL (63 nM) α-MSH
T1 construct: endogenous in cells; host or cells: B16 mouse melanoma cells
T1 sequence (P11344 19-533): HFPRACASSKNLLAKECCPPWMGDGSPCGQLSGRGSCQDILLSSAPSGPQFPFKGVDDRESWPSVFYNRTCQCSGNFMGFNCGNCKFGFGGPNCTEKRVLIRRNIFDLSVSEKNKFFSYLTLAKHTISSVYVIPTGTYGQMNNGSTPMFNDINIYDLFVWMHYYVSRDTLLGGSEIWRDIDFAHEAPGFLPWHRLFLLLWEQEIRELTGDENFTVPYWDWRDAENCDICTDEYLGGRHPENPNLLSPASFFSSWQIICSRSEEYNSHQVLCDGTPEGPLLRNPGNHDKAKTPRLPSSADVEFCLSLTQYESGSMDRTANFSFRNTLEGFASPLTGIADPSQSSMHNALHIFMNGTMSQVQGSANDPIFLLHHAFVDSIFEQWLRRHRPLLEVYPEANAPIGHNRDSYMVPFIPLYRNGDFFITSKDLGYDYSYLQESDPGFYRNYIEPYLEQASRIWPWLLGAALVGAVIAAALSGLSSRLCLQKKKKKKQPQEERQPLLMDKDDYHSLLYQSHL
Experimental: (§1) A method for in vitro testing whitening efficacy for B16 mouse melanoma cells was designed according to Association Standard T/SHRH 021-2019 for cosmetics whitening efficacy test, in combination with NCBI and CNKI literature research:
Cell samples having been treated by an inducer (α-MSH) and a to-be-tested substance were placed in a 96-well cell culture plate, for repeated freeze-thawing lysis. To each well 100 μL of 0.1˜0.5% levodopa was added, incubation was performed in a 37° C. cell incubator for about 2 h. the absorbancy (OD) value was measured at 450 nm wavelength.

B16 mouse melanoma cells = test: Measurement of melanin content in α-MSH-induced B16 cells; format: cell-based; settings: for melanin inhibition (in words): 24.25 μM (about 10 ppm), inducer 0.1 μg/mL (63 nM) α-MSH
Experimental: as §1
Cell samples having been treated by the inducer (α-MSH) and the to-be-tested substance were placed in a 6-well cell culture plate. 0.5˜2 mL of cell lysate was added. The culture plate was allowed to stand in a 65° C. constant-temperature oven for 2 h. Then, after the lysate was uniformly mixed, the lysate was added to a 96-well assay plate at 150 μL/well. The absorbancy (OD) value was measured at 450 nm wavelength.

[1] = system: Human immortalized keratinocytes HaCaT; settings: 24.25 μM; HaCaT cells
Experimental: It was tested whether ATP in HaCaT cells would be affected by EAC-L-carnosine. Human immortalized keratinocytes HaCaT having been treated with the test substance were fully lysed using a certain amount of cell lysate, and centrifuged at 4° C. and 12000 g for 5 min. Supernatant was taken, and cell lysis samples of each experimental group were added to a 96-well assay plate (opaque) at 20 μL/well. ATP detection solution was further added at 100 μL/well. The plate was left to stand at room temperature for 3˜5 min. Self-luminescence intensity was detected using a full-waveband plate reader.

H2O2-induced HaCaT cells = test: Anti-aging repair test for stratum corneum cell under oxidative stress (H2O2); format: cell-based, human; settings: 24 h sample repair after H2O2 damage
From the text: In order to study the anti-aging repair efficacy of the raw material of the present disclosure to stratum corneum cell under oxidative stress, according to Anti-wrinkly and Firming Lifting Efficacy Test of Cosmetics—In vitro Test Method of Reactive Oxygen Species (ROS) Inhibition with keratinocytes (Association Standard T/SHRH 032-2020), oxidative damage cell models were constructed with H2O2-induced HaCaT cells, and relative proliferation rate and ROS expression quantity of the cells were respectively measured.
Washing was performed for 3˜5 times with a serum-free culture medium. 100 μL of serum-free culture medium was added.

[2] = system: Human immortalized keratinocytes HaCaT; settings: about 24 μM/10 ppm; UVA 15 J/cm^2
Experimental: The plate was placed under a specific ultraviolet device, and UVA irradiation dose was 15 J/cm^2. After the induction was completed, the drug-containing PBS was removed, and replaced with a culture medium containing the to-be-tested sample, and they were placed in a carbon dioxide incubator.
ROS detection: after 24 h, a certain amount of DCFH-DA working solution was used in replacement. Incubation was performed in the dark for 15˜30 min. Washing was performed for 3˜5 times with serum-free culture medium. 100 μL of serum-free culture medium was added.
Cell viability detection: after 24 h, a serum-free culture medium containing 10% of CCK-8 was used in replacement. After incubation of 2˜4 h in a carbon dioxide incubator, an OD value was detected at 450 nm wavelength.
HaCat with damage induced by a certain dose of UVA was chosen, to construct a keratinocyte UVA damage cell model.

[3] = system: human primary fibroblasts FB; test: Synthesis test of type I collagen of fibroblast; format: cell-based; settings: 24.25 μM/10 ppm; FB supernatant, ELISA
Experimental: According to Anti-wrinkly and Firming Lifting Efficacy Test of Cosmetics—In vitro Test Method of Collagen I Contents with fibroblasts (Association Standard T/SHRH 032-2020), human primary fibroblasts FB were used to measure influence of each raw material group on collagen secretion of FB at a concentration (24.25 μM/10 ppm).
The plate was placed in a carbon dioxide incubator for incubation for 24 h+2 h. After incubation was finished, 200 μL of cell culture supernatant was collected per well in a 1.5 mL sterile centrifuge tube, and stored frozen in an ultra-low temperature freezer at −80° C.
Human type I collagenase immunization kit was used for ELISA detection. First, a standard was used for detection and a standard curve was plotted, and then a collagen content contained in the fibroblast supernatant diluted at an appropriate ratio was measured.

[4] = system: HFF human foreskin fibroblast; test: Fibroblast anti-aging repair test under UVA photoaging stress; format: cell-based; settings: about 24 μM/10 ppm; UVA 5 J/cm^2
Experimental: 100 μL of serum-free culture medium was added.
HYP (cell lysate) content detection: a hydroxyproline (HYP) content detection kit was used. First, a HYP standard was used for detection and a standard curve was plotted, and then a HYP […] content contained in the fibroblast lysate diluted at an appropriate ratio was measured.
Type I collagen content detection: human type I collagenase (Col I) immunization kit was used for ELISA detection. First, a type I collagen standard was used for detection and a standard curve was plotted, and then a collagen content contained in the fibroblast supernatant diluted at an appropriate ratio was measured.

Skin [5] = test: Efficacy for actual volunteer population (skin elasticity and skin tone, CK instrument); format: in vivo, human; settings: 20 ppm in basic cream, whole face; 14th and 28th days
From the text: Test population: experimental group of 15 people, placebo group of 15 people (31-54 years old, female).
Method of use: volunteers used the cream once every morning and evening, with 1 g per use, and uniformly applied the cream on the whole face.
Test instrument: CK instrument.
Test method: using cutometer and Colorimeter probes of the CK instrument to respectively perform a skin elasticity test and a skin tone test on a random side cheek of each volunteer, in a constant-temperature and constant-humidity environment, […]

3T3 cell = settings: GB/T 21769-2008
Blood cell = settings: Toxicology in Vitro 13 (1999) 343~354
Skin [6] = settings: GB17149.2-1997

CCOC1=C(O)C(=O)O[C@@H]1[C@@H](O)COC(=O)[C@H](Cc1c[nH]cn1)NC(=O)CCN [Example 1, 3-O-ethyl ascorbic acid-L-carnosine]
SIRC irritation conclusion (rabbit corneal cell SIRC; 10 ppm solution sample): no irritant | CSR (SIRC cell viability) (rabbit corneal cell SIRC; 10 ppm solution sample, SN/T 3084.2-2014): 106.0 | Test Conclusion, Ocular irritation SIRC model (rabbit corneal cell SIRC; OECD 491): pass | tyrosinase inhibition versus EAC, L-carnosine and their physical mixture (tyrosinase): better capability of inhibiting tyrosinase | melanin inhibition (in words) (B16 mouse melanoma cells; listed as EAC-L-Carnosine): significant effect of inhibiting melanin secretion | melanin inhibition (in words) (B16 mouse melanoma cells; listed as EAC-L-carnosine): significantly improved capability of inhibiting final melanin | down-regulation of melanin secretion (B16 mouse melanoma cells; 24.25 μM, B16 cells, α-MSH inducer): 27.85% | improvement of ATP expression compared with blank group [1]: 25.0% | ROS expression quantity after H2O2 damage (H2O2-induced HaCaT cells): significantly down-regulate the ROS expression quantity | cell activity after H2O2 damage (H2O2-induced HaCaT cells): significantly improve cell activity | activity of keratinocytes after UVA irradiation [2]: up-regulating the activity of keratinocytes after UVA irradiation | generation of free radical ROS after UVA, HaCaT [2]: significantly inhibiting the generation of free radical ROS | hydroxyproline HYP after UVA, HaCaT [2]: significantly activating collagen precursor hydroxyproline HYP | collagen I generation versus EAC, dipeptide monomer and their mixture [3]: more significant effect on promoting collagen generation | activity of fibroblasts after UVA irradiation [4]: significantly up-regulating the activity of fibroblasts after UVA irradiation | generation of free radical ROS after UVA, HFF [4]: significantly inhibiting the generation of free radical ROS | hydroxyproline HYP after UVA, HFF [4]: significantly activating collagen precursor hydroxyproline HYP | ITA skin tone of the test group population (Skin [5]): significant trend of elevation | HET-CAM irritation conclusion (chorioallantoic membrane; 10 ppm solution sample): non-irritant | IS (HET-CAM) (chorioallantoic membrane; 10 ppm solution sample, SN/T 2329-2009): 0 | Test Conclusion, Ocular irritation HET-CAM model (chorioallantoic membrane; SN329-2009): pass | Test Conclusion, Phototoxicity 3T3 cell model (3T3 cell): pass | Test Conclusion, Blood cell hemolysis test model (Blood cell): pass | Test Conclusion, Skin patch test and trial test (Skin [6]): pass
